The values below come from patent US11352339B2 (MISSION THERAPEUTICS LIMITED, priority 2016, dated 2022).

In general, IC50 refers to the concentration needed to halve the response being measured.

Sequence of USP30 (Q70CQ3 57-517): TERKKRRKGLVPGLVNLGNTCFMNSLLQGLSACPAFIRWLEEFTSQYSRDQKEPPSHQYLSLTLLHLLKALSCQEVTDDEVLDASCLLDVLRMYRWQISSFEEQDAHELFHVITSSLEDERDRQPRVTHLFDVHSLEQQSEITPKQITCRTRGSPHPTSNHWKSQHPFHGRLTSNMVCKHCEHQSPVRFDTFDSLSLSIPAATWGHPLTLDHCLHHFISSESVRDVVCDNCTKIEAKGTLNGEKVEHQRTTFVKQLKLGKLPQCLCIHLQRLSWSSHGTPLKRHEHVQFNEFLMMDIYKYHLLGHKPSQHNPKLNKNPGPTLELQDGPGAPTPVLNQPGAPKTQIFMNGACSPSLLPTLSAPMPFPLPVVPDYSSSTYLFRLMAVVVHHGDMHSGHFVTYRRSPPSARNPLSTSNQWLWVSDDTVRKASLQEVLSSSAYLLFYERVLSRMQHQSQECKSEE

For the experiment, the target named is USP30 (Homo sapiens (Human), UniProt Q70CQ3). Description: USP30 Biochemical IC50 Assay. The following applies: fluorescence polarisation, TAMRA labelled peptide linked to ubiquitin; 30 min pre-incubation, read after 2 h; read-out: IC50 range. The essentials:
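Enzyme preincubated 30 min at room temperature with compound, then 50 nM TAMRA-labelled isopeptide-linked ubiquitin–peptide substrate added. Fluorescence polarisation (ex 540/em 590 nm) read at once and after 2 h at room temperature; duplicate reactions.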
Turning to `N#CN1CCCC1c1noc(-c2cccc(-c3ccccc3)c2)n1` (stereo not shown) [Example 68, 2-(5-([1,1′-Biphenyl]-3-yl)-1,2,4-oxadiazol-3-yl)pyrrolidine-1-carbonitrile], the IC50 lay within 100 to 1000 nM.
Consider `N#CN1CCC(c2cc(-c3cccc(-c4ccccc4)c3)no2)C1` (single isomer, unassigned) [Example 118, 3-(3-([1,1′-Biphenyl]-3-yl)isoxazol-5-yl)pyrrolidine-1-carbonitrile], for which the half-maximal inhibitory concentration (IC50) was under 100 nM.
To `N#CN1CCC[C@H]1c1nc2cc(-c3cccc(OC(F)(F)F)c3)ccc2o1` [Example 133, (S)-2-(5-(3-(Trifluoromethoxy)phenyl)-benzo[d]oxazol-2-yl)pyrrolidine-1-carbonitrile] belongs 100 to 1000 nM.
As to `N#Cc1ccc(-c2cnc3[nH]c(C4CCN(C#N)C4)nc3c2)cc1` (stereo not shown) [Example 84, 3-(6-(4-Cyanophenyl)-3H-imidazo[4,5-b]pyridin-2-yl)pyrrolidine-1-carbonitrile], the half-inhibitory concentration (IC50) was 100 to 1000 nM.
